Measured values published in patent US9024027B2, “Derivatives of 1-phenyl-2-pyridinyl alkyl alcohols as phosphodiesterase inhibitors” (Chiesi Farmaceutici S.p.A., priority 2011, dated 2015).

Legend:
[1] = human, microsomes
Method: Test compounds in duplicate at the final concentration of 1 μM are dissolved in DMSO (DMSO final concentration 0.5% v/v) and pre-incubated for 10 minutes at 37° C. in potassium phosphate buffer pH 7.4, 3 mM MgCl2, with liver microsomes at the final concentration of 0.5 mg/ml. After the pre-incubation period, reactions are started by adding the cofactors mixture (NADP, Glc6P, Glc6P-DH); samples are taken at time 0, 5, 10, 15, 20 and 30 minutes, added to acetonitrile to stop reaction and centrifuged. The supernatants are analysed and quantified by LC-MS/MS.
A control sample without cofactors is always added in order to check the stability of test compounds in the matrix. […] Percent loss of substrate in incubation is determined to estimate in-vitro half life and in-vitro intrinsic clearance of compounds. […]
where: • k is calculated from the exponential fitting decay of the area values • V=incubation volume (mL)/mg protein • y=microsomal protein yield=52.5 mg/g liver Method b.
Test compounds are incubated, in duplicate, at the concentration of 1 μM with liver microsomes (0.8 mg protein/mL) in KHB buffer (pH 7.4) at 37° C. in the presence of 1 mM NADPH. […] The supernatant is analysed by LC-MS/MS for unchanged compounds.
Test compounds are incubated with liver microsomes in KHB buffer in the absence of NADPH for 0 and 60 minutes, as control. […] The half-life is calculated from the relationship: […]

[2] = test system: LPS-induced TNF-α release in peripheral blood mononuclear cells (PBMCs); test: In vitro determination of PDE4 inhibitory activity in the PBMCs assay (LPS-induced TNF-α release); format: cell-based; conditions: PBMC; human PBMCs, LPS 3 ng/ml, 18 hours; read-out: PDE4 inhibition (IC50, 50% inhibition of LPS-induced TNF-α release)
Method: The assay, which is based on the known inhibitory activity exerted by PDE4 inhibitors on the lipopolyshaccarides (LPS)-induced tumour necrosis factor-alpha (TNF-α release in peripheral blood mononuclear cells (PBMCs), was performed according to a method previously described (Hatzelmann A et al., J. Pharmacol. Exp. Ther., 2001; 297:267-279; and Draheim R et al., J. Pharmacol. Exp. Ther., 2004; 308:555-563, both of which are incorporated herein by reference in their entireties. Cryopreserved human PBMCs, (100 μl/well) were incubated in 96-well plates (10^5 cells/well), for 30 minutes, in the presence or absence (50 microl) of the test compounds whose concentrations ranged from 10^−12 M to 10^−6 M or from 10^−13 M to 10^−7 M. Subsequently, LPS (3 ng/ml) was added. After 18 hours of incubation at 37° C. in a humidified incubator under an atmosphere of 95% air and 5% CO2, culture medium was collected and TNF-α measured by ELISA.
The results of the tested compounds, representatives of the invention, expressed as mean±95% confidence limits of the molar concentration of the test compound producing 50% inhibition of LPS-induced TNF-α release (IC50) are shown in the following Table: […]

Compound | intrinsic Clearance [1] [mL/min/g] | IC50 [2] [nM]
O=C(Cn1c(=O)oc2ccccc21)O[C@@H](Cc1c(Cl)c[n+]([O-])cc1Cl)c1ccc(OC(F)F)c(OCC2CC2)c1 [Compound 24] | > 15 | 
CS(=O)(=O)N(CCN1CCOCC1)c1ccc2c(c1)CC(=O)N2CC(=O)O[C@@H](Cc1c(Cl)c[n+]([O-])cc1Cl)c1ccc(OC(F)F)c(OCC2CC2)c1 [Compound 243, (S)-3,5-dichloro-4-(2-(3-(cyclopropylmethoxy)-4-(difluoromethoxy)phenyl)-2-(2-(5-(N-(2-morpholinoethyl)methylsulfonamido)-2-oxoindolin-1-yl)acetoxy)ethyl)pyridine 1-oxide] |  | < 1
CS(=O)(=O)N(CCN1CCOCC1)Cc1ccc2c(c1)C(=O)N(CC(=O)O[C@@H](Cc1c(Cl)c[n+]([O-])cc1Cl)c1ccc(OC(F)F)c(OCC3CC3)c1)C2=O [Compound 258, (S)-3,5-dichloro-4-(2-(3-(cyclopropylmethoxy)-4-(difluoromethoxy)phenyl)-2-(2-(5-((N-(2-morpholinoethyl)methylsulfonamido)methyl)-1,3-dioxoisoindolin-2-yl)acetoxy)ethyl)pyridine 1-oxide] |  | < 1
O=C(CN1C(=O)c2ccccc2C1=O)O[C@@H](Cc1c(Cl)c[n+]([O-])cc1Cl)c1ccc(OC(F)F)c(OC2CCOC2)c1 (stereo partly drawn) [Compound 261, 3,5-dichloro-4-((2S)-2-(4-(difluoromethoxy)-3-(tetrahydrofuran-3-yloxy)phenyl)-2-(2-(1,3-dioxoisoindolin-2-yl)acetoxy)-ethyl)pyridine 1-oxide] |  | < 1
O=C(CN1C(=O)Cc2ccccc2C1=O)O[C@@H](Cc1c(Cl)c[n+]([O-])cc1Cl)c1ccc(OC(F)F)c(OCC2CC2)c1 [Compound 263, (S)-3,5-dichloro-4-(2-(3-(cyclopropylmethoxy)-4-(difluoromethoxy)phenyl)-2-(2-(1,3-dioxo-3,4-dihydroisoquinolin-2(1H)-yl)acetoxy)ethyl)pyridine 1-oxide] |  | 1 to 10
